Results from EPA's ToxRefDB 2.

Experiments:
rat [1] = settings: Multigenerational reproductive toxicity study, sprague dawley, Oral, Feed, dose end: 2 generation
mouse [2] = settings: Carcinogenicity, cd1, Oral, Feed, dose end: 78 week, group: systemic
rat [3] = settings: Subchronic oral toxicity in rodents, sprague dawley, Feed, dose end: 13 week
rat [4] = settings: Prenatal developmental toxicity study, Sprague-Dawley, Oral, Gavage/Intubation, dose end: 15 GD
dog [5] = settings: Chronic toxicity, beagle, Oral, Capsule, dose end: 12 month
rabbit [6] = settings: Prenatal developmental toxicity study, new zealand white, Oral, Gavage/Intubation, dose end: 19 GD
dog [7] = settings: Subchronic oral toxicity in nonrodent, beagle, Feed, dose end: 3 month
mouse [8] = settings: Combined chronic toxicity/carcinogenicity, other, Oral, Feed, dose end: 80 week, group: systemic
rat [9] = settings: Subchronic oral toxicity in rodents, wistar, Feed, dose end: 13 week, group: systemic
rat [10] = settings: Prenatal developmental toxicity study, sprague dawley, Oral, Gavage/Intubation, dose end: 15 GD
rabbit [11] = settings: Prenatal developmental toxicity study, new zealand white, Oral, Gavage/Intubation, dose end: 18 GD
mouse [12] = settings: Carcinogenicity, other, Oral, Feed, dose end: 18 month, group: systemic
mouse [13] = settings: Subchronic oral toxicity in rodents, other, Feed, dose end: 13 week, group: systemic
rat [14] = settings: Subchronic oral toxicity in rodents, sprague dawley, Gavage/Intubation, dose end: 91 day, group: systemic
[15] = group: offspring, systemic / in life observation / body weight / offspring (pup) weight
[16] = group: parental, systemic / in life observation / body weight / body weight
[17] = group: parental, systemic / in life observation / body weight / body weight + systemic / pathology microscopic / heart / cardiomyopathy
[18] = systemic / in life observation / body weight / body weight + systemic / in life observation / food consumption / food consumption
[19] = group: cholinesterase, cholinesterase / cholinesterase / cholinesterase / brain cholinesterase (che) + cholinesterase / cholinesterase / cholinesterase / plasma …
[20] = group: cholinesterase, cholinesterase / cholinesterase / cholinesterase / plasma cholinesterase (che)
[21] = group: systemic, systemic / in life observation / body weight / body weight + systemic / in life observation / body weight / body weight gain + systemic / in…
[22] = group: systemic, systemic / in life observation / body weight / body weight + systemic / in life observation / body weight / body weight gain + systemic / …
[23] = group: developmental, developmental / developmental malformation / bone / unossified + developmental / developmental malformation / trunk / omphalocele + systemic…
[24] = group: maternal, reproductive / reproductive performance / resorptions / resorptions + systemic / in life observation / body weight / body weight + systemic…
[25] = group: systemic, systemic / pathology microscopic / thymus / atrophy
[26] = group: cholinesterase, cholinesterase / cholinesterase / cholinesterase / erythrocyte cholinesterase (che) + cholinesterase / cholinesterase / cholinesterase / …
[27] = group: developmental, systemic / in life observation / body weight / fetal weight
[28] = group: maternal, systemic / in life observation / body weight / body weight + systemic / in life observation / clinical signs / fur (altered appearance) + …
[29] = group: systemic, systemic / in life observation / clinical signs / salivation + systemic / clinical chemistry / urea nitrogen / urea nitrogen + systemic / in…
[30] = systemic / clinical chemistry / immunoglobulins / immunoglobulins + systemic / pathology microscopic / thymus / cyst
[31] = systemic / clinical chemistry / aspartate aminotransferase (ast/sgot) / aspartate aminotransferase (ast/sgot) + systemic / in life …
[32] = group: developmental, developmental / developmental malformation / bone / unossified + systemic / in life observation / body weight / fetal weight
[33] = group: maternal, systemic / in life observation / body weight / body weight gain + systemic / in life observation / clinical signs / poor general condition
[34] = group: maternal, systemic / in life observation / body weight / body weight gain + systemic / in life observation / clinical signs / poor general condition…
[35] = group: developmental, systemic / in life observation / body weight / fetal weight + developmental / developmental malformation / bone / unossified
[36] = group: maternal, systemic / in life observation / body weight / body weight gain + reproductive / reproductive performance / aborted / aborted + systemic / …
[37] = systemic / clinical chemistry / immunoglobulins / immunoglobulins
[38] = systemic / organ weight / adrenal gland / absolute
[39] = systemic / organ weight / adrenal gland / absolute + systemic / clinical chemistry / albumin / albumin + systemic / clinical chemistry / …
[40] = systemic / in life observation / mortality / mortality + systemic / pathology microscopic / kidney / hydronephrosis + systemic / clinical …

## CCCN(CCC)C(=O)SCC [EPTC]
Rat [1]; [15]
  LEL: 40 mg/kg/day
  LOAEL: 40 mg/kg/day
  NEL: 10 mg/kg/day
  NOAEL: 10 mg/kg/day
Rat [1]; [16]
  NEL: 2.5 mg/kg/day
  NOAEL: 2.5 mg/kg/day
Rat [1]; [17]
  LEL: 10 mg/kg/day
  LOAEL: 10 mg/kg/day
Mouse [2]; systemic / in life observation / body weight / body weight
  LEL: 90 mg/kg/day
Mouse [2]; [18]
  LOAEL: 270 mg/kg/day
  NEL: 30 mg/kg/day
  NOAEL: 90 mg/kg/day
Rat [3]; [19]
  LOAEL: > 120 mg/kg/day
  NOAEL: ≥ 120 mg/kg/day
Rat [3]; [20]
  LEL: 72 mg/kg/day
  NEL: 15 mg/kg/day
Rat [3]; [21]
  LOAEL: 15 mg/kg/day
  NOAEL: 3 mg/kg/day
Rat [3]; [22]
  LEL: 3 mg/kg/day
  NEL: < 3 mg/kg/day
Rat [4]; [23]
  LEL: 300 mg/kg/day
  LOAEL: 300 mg/kg/day
  NEL: 100 mg/kg/day
  NOAEL: 100 mg/kg/day
Rat [4]; group: maternal, reproductive / reproductive performance / postimplantation loss / postimplantation loss
  LEL: 100 mg/kg/day
Rat [4]; [24]
  LOAEL: 300 mg/kg/day
  NEL: 30 mg/kg/day
  NOAEL: 100 mg/kg/day
Dog [5]; [20]
  LEL: 8 mg/kg/day
  LOAEL: 8 mg/kg/day
  NEL: 1 mg/kg/day
  NOAEL: 1 mg/kg/day
Dog [5]; group: systemic, systemic / pathology microscopic / lung / fibrosis + systemic / pathology microscopic / lung / inflammation + systemic / clinical chemistry…
  NOAEL: 1 mg/kg/day
Dog [5]; group: systemic, systemic / pathology microscopic / lung / fibrosis + systemic / pathology microscopic / lung / inflammation + systemic / in life observation…
  LOAEL: 8 mg/kg/day
Dog [5]; [25]
  LEL: 1 mg/kg/day
  NEL: < 1 mg/kg/day
Rabbit [6]; [26]
  LEL: 5 mg/kg/day
  LOAEL: 5 mg/kg/day
  NEL: < 5 mg/kg/day
  NOAEL: < 5 mg/kg/day
Rabbit [6]; [27]
  LEL: 300 mg/kg/day
  LOAEL: 300 mg/kg/day
  NEL: 40 mg/kg/day
  NOAEL: 40 mg/kg/day
Rabbit [6]; [28]
  LEL: 300 mg/kg/day
  LOAEL: 300 mg/kg/day
  NEL: 40 mg/kg/day
  NOAEL: 40 mg/kg/day
Dog [7]; [20]
  LEL: 45 mg/kg/day
  LOAEL: 45 mg/kg/day
  NEL: 15 mg/kg/day
  NOAEL: 15 mg/kg/day
Dog [7]; group: systemic, systemic / in life observation / clinical signs / salivation
  LOAEL: 45 mg/kg/day
Dog [7]; [29]
  LEL: 45 mg/kg/day
  NEL: 15 mg/kg/day
  NOAEL: 15 mg/kg/day

## [OH-].c1cc[c]([Sn+]([c]2ccccc2)[c]2ccccc2)cc1 [Triphenyltin hydroxide]
Mouse [8]; [30]
  LEL: 0.85 mg/kg/day
  NEL: < 0.85 mg/kg/day
Mouse [8]; systemic / clinical chemistry / immunoglobulins / immunoglobulins + systemic / pathology microscopic / thymus / cyst + systemic / in life …
  NOAEL: 3.5 mg/kg/day
Mouse [8]; systemic / in life observation / body weight / body weight gain + systemic / organ weight / liver / absolute + systemic / organ weight / …
  LOAEL: 15.2 mg/kg/day
Rat [9]; systemic / clinical chemistry / aspartate aminotransferase (ast/sgot) / aspartate aminotransferase (ast/sgot) + systemic / clinical …
  LEL: 1.56 mg/kg/day
Rat [9]; [31]
  LOAEL: 7.41 mg/kg/day
  NEL: 0.3 mg/kg/day
  NOAEL: 1.56 mg/kg/day
Rat [10]; [32]
  LEL: 8 mg/kg/day
  LOAEL: 8 mg/kg/day
  NEL: 2.8 mg/kg/day
  NOAEL: 2.8 mg/kg/day
Rat [10]; [33]
  LEL: 2.8 mg/kg/day
  LOAEL: 2.8 mg/kg/day
Rat [10]; [34]
  NEL: 1 mg/kg/day
  NOAEL: 1 mg/kg/day
Rabbit [11]; [27]
  LOAEL: 0.9 mg/kg/day
Rabbit [11]; [35]
  LEL: 0.9 mg/kg/day
  NEL: 0.3 mg/kg/day
  NOAEL: 0.3 mg/kg/day
Rabbit [11]; group: maternal, systemic / in life observation / body weight / body weight gain
  LOAEL: 0.3 mg/kg/day
Rabbit [11]; [36]
  NEL: 0.1 mg/kg/day
  NOAEL: 0.1 mg/kg/day
Rabbit [11]; group: maternal, systemic / in life observation / body weight / body weight gain + systemic / in life observation / body weight / body weight + systemic / in…
  LEL: 0.3 mg/kg/day
Mouse [12]; [37]
  LOAEL: 0.85 mg/kg/day
  NOAEL: < 0.85 mg/kg/day
Mouse [12]; [30]
  LEL: 0.85 mg/kg/day
  NEL: < 0.85 mg/kg/day
Mouse [13]; [38]
  LEL: 4.12 mg/kg/day
  LOAEL: 4.12 mg/kg/day
Mouse [13]; [39]
  NEL: 0.88 mg/kg/day
  NOAEL: 0.88 mg/kg/day

## [PH]=[Zn].[PH]=[Zn].[Zn] [Zinc phosphide]
Rat [14]; systemic / in life observation / clinical signs / body cold to touch + systemic / in life observation / clinical signs / salivation + …
  NEL: 0.1 mg/kg/day
Rat [14]; systemic / in life observation / mortality / mortality + systemic / pathology microscopic / kidney / hydronephrosis
  LOAEL: 1 mg/kg/day
Rat [14]; [40]
  LEL: 1 mg/kg/day
  NOAEL: 0.1 mg/kg/day
